According to PubChem BioAssay (NCI):
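Tested at 5 concentrations; 48 h exposure; 96-well plates; endpoints linearly interpolated, else capped at highest concentration. Definition used: TGI = concentration required for complete inhibition of growth.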

Columns and labels:
Assay in all cases: growth of human tumour cells (NCI), 48 h
T-47D breast = system: T-47D breast
UO-31 renal = system: UO-31 renal
HCT-116 colon = system: HCT-116 colon
PC-3 prostate = system: PC-3 prostate
SR leukemia = system: SR leukemia
TK-10 renal = system: TK-10 renal
SF-539 CNS = system: SF-539 CNS
A498 renal = system: A498 renal
HOP-62 NSCLC = system: HOP-62 NSCLC
COLO 205 colon = system: COLO 205 colon

| Structure (SMILES) | TGI (T-47D breast) [µM] | TGI (UO-31 renal) [µM] | TGI (HCT-116 colon) [µM] | TGI (PC-3 prostate) [µM] | TGI (SR leukemia) [µM] | TGI (TK-10 renal) [µM] | TGI (SF-539 CNS) [µM] | TGI (A498 renal) [µM] | TGI (HOP-62 NSCLC) [µM] | TGI (COLO 205 colon) [µM] |
| --- | --- | --- | --- | --- | --- | --- | --- | --- | --- | --- |
| c1ccc2c(-c3csc(-c4c[nH]c5ccccc45)n3)c[nH]c2c1 | > 100 | > 100 | > 100 | > 100 | > 74.6 | > 100 | > 100 | > 100 | > 100 |  |
| BrCc1ccc(CBr)c2c1-c1c(CBr)ccc3ccc(CBr)c-2c13 | > 100 | > 100 | > 100 | > 100 | > 100 | > 100 | > 100 | > 100 | > 100 |  |
| CCCC(=O)OCOC(=O)N(C)N=Nc1ccc(C(=O)OCC)cc1 | > 100 | > 100 | 46.6 | 97.1 | > 100 | > 100 |  | > 100 | > 100 | 51.5 |
| C/C(=N\NC(=S)Nc1ccc([N+](=O)[O-])cc1)c1nc2ncccc2[nH]1 | 22.9 | 1.35 | 6.12 | 16.9 | > 100 | 4.56 | 1.37 | 8.76 | 4.33 | 23.1 |
| FC(F)(F)c1cccnc1Sc1nc2ccccc2s1 | > 100 | > 100 | > 100 | > 100 | > 100 | > 100 | > 100 | > 100 | > 100 | > 100 |
| CCC(=O)C(CCN1CCC(N2C(=O)C(CCC#N)c3ccccc32)CC1)(c1ccccc1)c1ccccc1 (stereo unspecified) | 29.3 | 21.4 | 17 | 43.2 | 10.2 | 31.2 | 34.5 | 40.1 | 32.2 | 21.4 |
| O=[N+]([O-])C(=C/c1cccc2ccccc12)/C(=C\c1cccc2ccccc12)[N+](=O)[O-] | 10.6 | 3.66 | 7.2 | > 24.3 | 9.03 | 4.65 | 5.63 | 33.5 | 7.03 | > 21.7 |
| Cc1cccc(CNc2ncnc3[nH]ncc23)c1 | > 100 | > 100 | > 100 | > 100 | > 100 | > 100 | > 100 | > 100 | > 100 | > 100 |
| CCCCN(C)C(=O)C1=C(C)NC(C)=C(C(=O)N(C)CCCC)C1 | > 100 | > 100 | > 100 | > 100 | > 100 | > 100 | > 100 | > 100 | > 100 | > 100 |
| C=CCNC(=O)CN(CC(=O)O)C1CCCCC1N(CC(=O)O)CC(=O)O (stereo unspecified) | > 100 | > 100 | > 100 | > 100 | > 100 | > 100 | > 100 | > 100 | > 100 | > 100 |
| C[C@H]1C[C@H]2[C@@H]3CCC4=CC(=O)C=C[C@]4(C)C3=CC[C@]2(C)[C@@]1(O)C(=O)CO | > 100 | > 100 | > 100 | > 100 | > 100 | > 100 |  | > 100 | > 100 | > 100 |
| COc1ccc(NC(=O)C(=O)Cc2nc3ccc(C(=O)c4ccccc4)cc3[nH]c2=O)c([N+](=O)[O-])c1 | 68.9 | 67.6 | > 100 | > 100 | 51.1 | > 100 | > 100 | 54.8 | > 100 | 40 |
| C=C1C2CCC3(CCC4C5(C)CCCC4(C=[N+](CCO)C5)C3C2)C1O (stereo unspecified) | > 100 | > 100 | > 100 | > 100 | > 100 | > 100 | > 100 | > 100 | > 100 | > 100 |
| O=c1cc(CNC2CC3CCC2C3)[nH]c(=O)[nH]1 (stereo unspecified) | > 100 | > 100 | > 100 | > 100 | > 100 | > 100 | > 100 | > 100 | > 100 | > 100 |
| CC(=O)O[C@@H]1[C@H]2[C@@H](OC(=O)c3ccccc3)[C@@H](C)C[C@]2(O)[C@H](OC(C)=O)[C@@]2(C)[C@@H]3C[C@@](C)(OC(C)=O)C[C@@H](OC(C)=O)[C@@]3(OC(C)=O)C[C@@]12C | > 10 | > 10 | > 10 | > 10 | > 10 | > 10 | > 10 | > 10 | > 10 | > 10 |
| O=C1C=C(C2=C(C3=CC(=O)c4ccccc4C3=O)C(=O)c3ccccc3C2=O)C(=O)c2ccccc21 | 29.5 | 11.1 | 20.5 | 47.6 | > 100 | 21.8 | 21.7 | 36.8 | 33.5 | 17.3 |
